Results on one compound are retold here after patent US8283322B2, “Formulations for nonsurgical exogenous crosslink therapy” (Orthopeutics, LP, priority 2008, dated 2012).

The subject of series [1] is homogenized annulus tissue. Conditions: bovine.
Procedure: (§1) Increasing concentrations of protein crosslinkers were added to homogenized annulus tissue and incubated for either 1 hr (EDC, GP, MG, PA and GA), 2 hrs (TG) or 6 hrs (DT and LT). Crosslinking was quantified by determining the amount of hydroxyproline (HYP) released from the tissue by collagenase digestion.
(§2) Homogenized annulus tissue was treated with sub-saturating concentrations of various crosslinkers at varying pH and incubated for either 1 hr (EDC, GP, MG, PA and GA), 2 hrs (TG) or 6 hrs (LT). Crosslinking was quantified by determining the amount of hydroxyproline (HYP) released from the tissue by collagenase digestion.
(§3) In order to determine the effective concentration range for various crosslinking reagents we incubated samples of annulus tissue in increasing concentrations of either genipin (GP), methylglyoxal (MG), proanthrocyanidin (PA), L-threose (LT), D-threose (DT), dimethylaminopropyl) carbodiimide hydrochloride (EDC) or transglutaminase (TG). Crosslinking efficiency was measured indirectly by monitoring the release of peptides containing hydroxyproline upon subsequent digestion with collagenase. Glutaraldehyde (GA), a commonly used, but highly toxic protein crosslinker was used as a positive control.
(§4) To test this hypothesis, the inventors subjected calf annulus fibrosus tissue to crosslinking with sub-saturating levels of our reagents at varying pH. In order to maintain optimal buffering capacity at each pH, different buffers were selected for each point.
Series [2] deals with homogenized annulus tissue. Kind of series: Crosslinking of annulus tissue quantified by hydroxyproline release upon collagenase digestion.
Procedure: as §1, §2, §3, §4
For series [3], the system named is annulus fibrosus specimens from bovine lumbar intervertebral discs. Kind of series: Tear resistance of annulus fibrosus (radial tear propagation). Conditions: soaked two days in 0.15M PBS plus 0.33% genipin. From the text: Ten annulus fibrosus circumferentially aligned specimens from bovine lumbar (T12-L5) intervertebral discs were divided into two groups and either soaked two days in a 0.15M PBS or a 0.15M PBS plus 0.33% genipin solution. A custom loading fixture attached to a uniaxial materials testing system was designed to hold an annulus specimen perpendicular to the travel of a metal cylinder placed in a pre-existing radial cut. The cylinder was then pulled radially (perpendicular to lamellae) towards the external layer. Time dependent force and displacement data was acquired simultaneously. Tearing resistance was quantified in two ways: peak force normalized by specimen thickness and tearing energy per area of tear. Differences between groups were analyzed using the Mann-Whitney non-parametric test.

The subject of series [4] is calf intervertebral discs. Kind of series: Hydration change / fluid flux of disc regions (soaking, creep loading, resoaking). Conditions: for % increase by Genipin, NP: flux into and out of the central nucleus region vs control flux. Details: species or system calf (4 month-old bovine). From the text: By measuring the change in hydration of different regions of the intervertebral disc (nucleus pulposus, inner annulus, and outer annulus fibrosus) prior to and after periods of soaking, sustained compressive loading, and resoaking, the fluid flux to and from different regions can be determined. By comparing these measurements between control discs and discs treated with crosslinking reagents known to have minimal cytotoxicity, we see the effect of crosslinking treatment on fluid flux and permeability. A total of 24 calf (4 month-old bovine) intervertebral discs were used for this study. Water content of three different areas of the […] tissue were tested-the nucleus pulposus, inner annulus fibrosus and outer annulus fibrosus. Hydration change was determined by weighing the specimen using a micro-balance (sensitivity: 0.1 mg). Water content (M) was calculated as: M=(Wet Weight-Dry Weight)/Wet Weight=g H2O/g Wet Weight The drying procedure consisted of putting the specimens in the oven with a controlled temperature of 90° C. for 24 hrs. The specimens were separated into four tests: • 1. Group A: Three specimens were in this group. It served as a control group. The specimens were soaked in PBS (phosphate buffered saline) for 1 day and then the hydration analysis was performed. • 2. Group B1: Four specimens were in this group. In addition to the one day PBS soaking, the specimens soaked in PBS for 2 more days as a control and then the hydration analysis was performed. • Group B2: Five specimens were in this group. In addition to the one day PBS soaking, the specimens were soaked in 0.33% genipin solution for 2 days and then the hydration analysis was performed. • 3. In group C, a small daytime amount of constant compressive loading (creep) was simulated. • C1: Three specimens were in this group. The specimens were soaked in PBS for 3 days and then […] of compression was applied by a materials testing machine for 1 hour. The disc was compressed in a 5 degree of flexion posture produced by two rollers attached to the loading ram of the materials testing machine. The hydration analysis was performed immediately after the creep loading. • C2: Three specimens were in this group. The specimens were soaked in 0.33% Genipin solution for 2 days after 1 day of PBS soaking and performed identical creep loading with […] compressive load. The hydration analysis was performed immediately after the creep loading. • 4. In group D, the imbibition of water following a period of compressive loading that typically occurs in the night time as a person is in a recumbent posture was simulated. • D1: The specimens were soaked in PBS solution for 3 days and then 1 hr of creep loading at […] was applied. After the creep loading, the specimens were placed in a container in 1 PBS for one more day followed by the hydration analysis. • D2: Three specimens were included and were soaked in 0.33% genipin solution for 2 days after one day of PBS soaking. A creep load of […] for 1 hr was then applied. The specimens were put in PBS for another day followed by the hydration analysis.

Series [5] has as its system calf lumbar spinal discs. Kind of series: Diffusion study in calf lumbar spinal discs (area of diffusion zone, ImageJ). Conditions: 0.1% (w/v) SDS in PBS, 1 hr, 37° C.; p=0.021. The method, then: FIG. 12—Diffusion kinetics of genipin and BSA in calf lumbar spinal discs. 200 μl of 0.33% (w/v) or 1 mg/ml BSA-Texas Red were injected at a depth of 1 cm into the discs of individual calf lumbar motion segments and incubated for 1, 3 or 6 hours at 37° C. Samples were transected and the area of each diffusion zone at each time point and for each reagent was determined from photographs using ImageJ software.
FIG. 13—Effect of surfactants on the diffusion of GP and BSA-TR. 200 μl of 0.33% (w/v) or 1 mg/ml BSA-Texas Red formulated in PBS in the absence of presence of 0.1% (w/v) of either Tween-20 or SDS were injected at a depth of 1 cm into the discs of individual calf lumbar motion segments. Segments were incubated for 1 hr at 37° C. and the samples were then transected and the area of each diffusion zone determined from photographs using ImageJ software.
In order to observe the diffusion kinetics of these markers, GP (0.33% (w/v)) or BSA-TR (1 mg/ml) were dissolved in PBS and 200 μl injected at a depth of 1 cm into the discs of individual calf lumbar motion segments and incubated at 37° C. for 1, 3 or 6 hrs in sealed ZipLoc bags containing a sheet of paper towel moistened with H2O. […] In some cases, however, diffusion zones merged and were not possible to quantify and in subsequent experiments injections were limited to the left and right lateral regions. […]

Setting [6] is: combined fluid flow out (creep) and in (resoaking).

In the case of `COC(=O)C1=CO[C@@H](O)[C@@H]2C(CO)=CC[C@H]12` [Genipin, genipin], in series [1], the T1/2 was in the range of 10 to 18 min. In addition, the “effect of buffer (EPPS vs Tris) on crosslinking” value in series [2] (100 mM EPPS or 100 mM Tris, GP at pH 9) is “more effective in EPPS buffer than in Tris”. Besides, in series [2] (Tris buffer pH 8, increasing concentrations of sodium phosphate), the “effect of phosphate on crosslinking” value was “dose-dependent enhancement”. Moreover, the pH in series [2] (optimized pH for crosslinking, Table 5) is 8-9. In series [2] (saturating crosslinker concentration, Table 5), the “[Saturating]” value is 5 to 10 mM. Moreover, in series [2] (sub-saturating crosslinker, pH 4-9 with a different buffer at each pH (FIG. 2, FIG. 3)), the “pH dependence of crosslinking” value is given as “function better in disc tissue at the higher pH levels”. Moreover, in series [3] (p=0.047 vs control), the “Total energy per area of tear” value worked out at 40.2 mJ/mm^2. The Normalized peak force in series [3] (p=0.076 vs control) was found to be 42.7 N/mm. Besides, in series [4] (setting [6]), the “Genipin Flux, Inner AF” value is 0.1008; the “Genipin Flux, NP” value is given as 0.04983; the “Genipin Flux, Outer AF” value worked out at 0.05294. In addition, in series [4], the “% increase by Genipin, NP” value turned out to be 63.7%. Further, the “% increase by Genipin, NP” value in series [4] (listed as genipin) is on record as 64%. In series [4] (flux vs control flux), the “% increase by Genipin, Inner AF” value was determined as 17.3% and the “% increase by Genipin, Outer AF” value is 5.7%. For the same compound, the “enhancement of diffusion by SDS” value in series [5] is listed as “approximately 30%”.
